Data from patent publication US12275685B2, “Oligo-benzamide analogs and their use in cancer treatment” (Board of Regents, The University of Texas System, priority 2018, dated 2025).

Assays:
[1] = tested on: SUM-159 cells with LIPA KO and reconstitution of LIPA; test: Dose response in SUM-159 LIPA KO cells reconstituted with LIPA constructs; format: cell-based
Description: FIGS. 39A-N: (FIGS. 39A-E) Predicted binding mode of ERX-41 (colored in green) on the human lysosomal acid lipase (LAL, PDB code: 6V7N, LXXLL (SEQ ID NO: 1) domain colored in orange). (FIG. 39F) PDB structure of LAL protein showing relative positions of the catalytic domain (with H274Y MT) and the LXXLL (SEQ ID NO: 1) domain (L242P MT). (FIG. 39G) Evaluation of the effect of ERX-41 and lalistat (known lipase inhibitor) on lipase activity of parental SUM-159 (WT) and SUM-159 cells with LIPA KO. (FIG. 39H) Evaluation of basal lipase activity in parental SUM-159 (WT), SUM-159 cells with LIPA KO (KO), SUM-159 cells with LIPA KO and with reconstitution of either WT LIPA (KO+WT), H274Y MT-LIPA (KO+H274Y), DLXXLL (SEQ ID NO: 2) MT-LIPA (KO+DLXXLL (SEQ ID NO: 2)) or L242P MT-LIPA (KO+L242P). Protein expression of LAL and control vinculin in these cells are shown below (FIG. 391) Cellular lysates from described SUM-159 cells were incubated with biotinylated ERX-11 or biotinylated ERX-41 and then subject to a streptavidin column. Elutants were then evaluated for LIPA pulldown by western blotting. (FIG. 39J) Dose response curve to increasing concentrations of ERX-41 in described SUM-159 cells. (FIGS. 39K-M) Effect of vehicle or 1 μM ERX-41 on induction of UPR genes at the protein level (FIG. 39K) or RNA level (FIGS. 39L-M). […]

[2] = tested on: nuclear receptor (NR) interaction with its coregulator proteins; test: Inhibition of nuclear receptor-coregulator interaction in cancer cells; format: cell-based
Protocol: The present oligo-benzamide analogs are extremely potent and effective on various cancer cells including breast cancer, ovarian cancer, and pancreatic cancer. These compounds have a unique mode of action compared to existing therapeutic treatments to these diseases. The compounds are very potent with IC50 values of 10-50 nM for growth inhibition. TK41 is a tris-benzamide analog and it inhibits nuclear receptor (NR) interaction with its coregulator proteins in cancer cells with high potency (IC50 is approximately 100 nM; FIGS. 1-4).

[3] = tested on: parental SUM-159 xenografts; test: Parental SUM-159 xenografts; format: in vivo, SCID mice; conditions: 10 mg/kg daily
Description: FIGS. 37A-J: The molecular target of ERX-41 in TNBC is LIPA. […] (FIG. 37B) Knockout clones of LIPA, ACACA, TMEM208, SOAT1 and ARID1A were generated in MDA-MB-231 cells and evaluated for response to ERX-41 using doseresponse curves using CellTiter-Glo assays in vitro. (FIGS. 37C-D) Effect of knockout of LIPA in SUM-159 (FIG. 37C) and MDA-MB436 (FIG. 37D) on dose response curve to ERX-41 using CellTiter-Glo assays in vitro. (FIGS. 37E-F) Dose response curves of SUM-159 parental cells and clones with LIPA KO to thapsigargin (FIG. 37E) and paclitaxel (FIG. 37F). (FIGS. 37G-H) Live cell imaging studies with SYTOX Green to examine ability of 1 μM ERX-41 to induce cell death in parental SUM-159 and SUM-159 clones with LIPA KO, with quantitation (FIG. 37G) and time-lapsed photomicrographs at 0 h and 30 h ((FIG. 37H). (FIGS. 37I-J) SCID mice were implanted with either parental SUM-159 or SUM-159 clones with LIPA KO (n=6, each group) and tumors were allowed to establish (150 mm^3). Following daily intraperitoneal administration of 10 mg/kg ERX-41, tumor sizes were measured and graphed (FIG. 37I), along with mice body weights (FIG. 37J). *p<0.05. **p<0.01; ***p<0.001.
The molecular target of ERX-41 in TNBC is LIPA. […] Knockout clones of LIPA, SLC5A3, SMAP2, TMEM208, SOAT1 and ARID1A were generated in multiple TNBC cells and evaluated for response to ERX-41.

For `CC(C)COc1cc(C(=O)Nc2ccc(C(=O)N[C@H]3CC[C@H](C)CC3)cc2OCC(C)C)ccc1NC(=O)c1ccc([N+](=O)[O-])c(OCCO)c1` [TK41], the “sensitivity after reconstitution of H274Y MT-LIPA” value ([1]; KO+H274Y) was “restored sensitivity”, the IC50 ([1]; SUM159, KO+WT (WT-LIPA reconstituted)) was 250 nM and the IC50 [2] was ~100 nM. For the same compound, the “response of parental SUM-159 xenografts” value [3] was “responded significantly”.
